Results reported in patent publication US20230100235A1, “ANTICANCER AGENT COMPOSITION” (CARNA BIOSCIENCES, INC., priority 2020, published 2023).
Counter-ions that a name gives are not always drawn. Like-named read-outs stand apart in the source and are kept apart here.

Legend:
Type in all cases: cell-based, Human
[1] = system: BTK-C481S-mutant OCI-Ly10 cells; experiment: Cell proliferation suppression test of single agents, BTK-C481S-mutant OCI-Ly10; details: single agent, read-out: Inhibitory activity on cell proliferation OCI-Ly10 BTK-C481S IC50
Description: (§1) The OCI-Ly10 or U2932 cells (20000 cells/well) were seeded into 96-well plates (cell plates), to which the test compound diluted with the medium was added at final concentrations of 0.009 nM to 30000 nM (a final DMSO concentration of 0.3%), and after 96 hours of culture, an Alamar Blue reagent (Thermo Fisher Scientific Inc.) was added. After 3 hours, the fluorescence of excitation wavelength 560 nm/fluorescence wavelength 590 nm was measured and IC50 values of inhibitory activity were determined by setting a compound-free and cell-free well as 100% and a compound-free and cell-containing well as 0%.
BTK-C481S-mutant OCI-Ly10 cells were produced by point mutation knock-in using the CRISPR-Cas9 system. Cas9 protein (Thermo Fisher Scientific Inc.), guide RNA prepared with GeneArt™ Precision gRNA Synthesis Kit (Thermo Fisher Scientific Inc.), and a single-stranded synthetic oligonucleotide to replace 481st cysteine residue of BTK with a serine residue were introduced into OCI-Ly10 cells by an electroporation method. The resulting modified OCI-Ly10 cells were cultured in the presence of ibrutinib, and the grown cells were used as BTK-C481S-mutant OCI-Ly10 cells. Transduction of the mutation was confirmed by genomic DNA and mRNA sequence analysis.
In the same manner as in Test Example 1, IC50 values for each inhibitor single agent were determined.

U2932 cells = experiment: Cell proliferation suppression test of single agents, U2932 (Alamar Blue, 96 h); details: read-out: Inhibitory Activity on cell proliferation IC50 U2932
Description: Human lymphoma cell line U2932 cells (obtained from DSMZ) were cultured in a 5% CO2 incubator using RPMI medium (Roswell Park Memorial Institute medium, Thermo Fisher Scientific Inc.) containing 10% fetal bovine serum (GE Healthcare) and 1% penicillin streptomycin (NACALAI TESQUE, INC.).
as §1

OCI-Ly10 cells = experiment: Cell proliferation suppression test of single agents, OCI-Ly10 (Alamar Blue, 96 h); details: read-out: Inhibitory Activity on cell proliferation IC50 OCI-Ly10
Description: Human lymphoma cell line OCI-Ly10 cells (obtained from University Health Network) were cultured in a 5% CO2 incubator using IMDM medium (Iscove's Modified Dulbecco's Medium, Thermo Fisher Scientific Inc.) containing 20% fetal bovine serum (GE Healthcare) and 1% penicillin streptomycin (NACALAI TESQUE, INC.).
as §1

[2] = Homo sapiens, U2932, single agent
[3] = Homo sapiens, OCI-Ly10, single agent

| Structure (SMILES) | IC50 [1] [nM] | IC50 (U2932 cells; single agent) [nM] | IC50 (OCI-Ly10 cells; single agent) [nM] | IC50 ([1]; Homo sapiens, OCI-Ly10) [nM] | IC50 (U2932 cells; [2]) [nM] | IC50 (OCI-Ly10 cells; [3]) [nM] |
| --- | --- | --- | --- | --- | --- | --- |
| O=C(c1cc(-c2cc3c(cc2C(=O)N2Cc4ccccc4C[C@H]2CN2CCOCC2)OCO3)n2c1CCCC2)N(c1ccccc1)c1ccc(O)cc1 [Compound S-55746] | 120 | 1350 | 69 |  |  |  |
| CC1(C)CCC(c2ccc(Cl)cc2)=C(CN2CCN(c3ccc(C(=O)NS(=O)(=O)c4ccc(N[C@H](CCN5CCOCC5)CSc5ccccc5)c(S(=O)(=O)C(F)(F)F)c4)cc3)CC2)C1 [navitoclax] |  |  |  | 96 | 390 | 68 |
| CC1(C)CCC(CN2CCN(c3ccc(C(=O)NS(=O)(=O)c4ccc(NCC5CCOCC5)c([N+](=O)[O-])c4)c(Oc4cnc5[nH]ccc5c4)c3)CC2)=C(c2ccc(Cl)cc2)C1 [venetoclax] |  |  |  | 20 | 720 | 10 |
| COC1=CC(c2cc3ccccc3[nH]2)=N/C1=C\c1[nH]c(C)cc1C [obatoclax mesylate] |  |  |  | 150 | 190 | 150 |
